Read-outs that look alike come from different tables or passages of the source.
Legend:
hM2 [1] = target: T1, hM2 (Homo sapiens, UniProt P08172); assay: Competitive [3H]NMS radioligand binding, CHO-K1 membranes expressing hM2; conditions: for Displacement ± SD hM2: displacement of [3H]NMS, single ligand concentration corresponding to a Ki value of 1 µM (Cheng-Prusoff)
T1 sequence (P08172 1-466): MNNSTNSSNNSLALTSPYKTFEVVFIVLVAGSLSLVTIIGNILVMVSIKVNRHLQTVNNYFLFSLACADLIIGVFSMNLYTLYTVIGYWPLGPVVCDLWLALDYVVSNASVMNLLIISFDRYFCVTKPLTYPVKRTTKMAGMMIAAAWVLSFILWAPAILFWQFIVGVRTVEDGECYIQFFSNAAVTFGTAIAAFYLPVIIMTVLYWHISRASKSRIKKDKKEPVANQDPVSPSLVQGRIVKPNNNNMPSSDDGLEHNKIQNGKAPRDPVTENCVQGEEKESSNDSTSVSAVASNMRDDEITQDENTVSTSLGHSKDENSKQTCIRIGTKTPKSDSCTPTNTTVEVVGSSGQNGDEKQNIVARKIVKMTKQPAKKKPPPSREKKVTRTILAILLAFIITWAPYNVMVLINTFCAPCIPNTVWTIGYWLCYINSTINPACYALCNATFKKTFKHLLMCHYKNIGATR
Excerpt: (§1) The arecaidine esters’ affinities towards the human mAChR subtypes hM1–hM5 were studied in a competitive radioligand binding assay using CHO-K1 cell membrane homogenates expressing a single mAChR subtype and tritiated N-methyl scopolamine methyl chloride ([^3H]NMS). To speed up our affinity testing regime, we subjected all test substances to preliminary single-concentration displacement assays, as described previously. Compounds with percent displacements below 75% at any of the subtypes were dropped from further investigations (Table S1). For compounds meeting the percent displacement threshold (8c, 10b, 10c, 17b, 18b, and 25), inhibition constants (Ki) were assessed in dose-dependent displacement experiments (Table 2).
(§2) Cell membranes bearing hM1-hM5 receptors were prepared as described previously. Briefly, stably transfected CHO-K1 cells were grown to at least 80% confluency in T175 flasks, washed with ice-cold DPBS, and scraped into a mixture of ice-cold 2 mL 10 mM Tris-HCl, 1 mM EDTA-buffer, pH 7.4 and 200 µL protease inhibitor. A cell homogenate was prepared by passing the cell suspension through a G29 needle. The cell homogenates corresponding to two T175 flasks were combined and subsequently centrifuged (10 min, 1000× g, 4 °C). Ultracentrifugation of the supernatant (1 h, 100,000× g, 4 °C) yielded a membrane pellet, which was suspended in 250 µL 50 mM Tris-HCl buffer, pH 7.4 and stored at −80 °C.
(§3) Then, 5 µL of test compound in DMSO, 50 µL of [^3H]NMS in assay buffer, and 445 µL of membrane suspension in assay buffer were incubated for 90 min at 23 °C in PP tubes. Maximum binding was measured by using 5 µL DMSO, and nonspecific binding was measured by using 5 µL of 1 µM scopolamine in DMSO. The effective concentration of [^3H]NMS was 0.2 nM, 0.3 nM, 0.8 nM, 0.2 nM, and 1 nM for M1–M5 and 4–30 µg membrane were used per tube. The membrane-bound radioactivity was recovered by filtration through Whatman™ GF/B glass fiber filters presoaked in aqueous 0.1% PEI using an M-36 tygon tubed cell harvester (Brandel®, Gaithersburg, MD, USA). Membranes were washed three times with ice-cold washing buffer (50 mM Tris, pH 7.4) before being dried, transferred to 2 mL scintillation cocktail (UltimaGold™, high flashpoint LSC cocktail, PerkinElmer, Waltham, MA, USA) and counted in a β-counter (Hidex TDCR liquid scintillation counter in CPM mode). IC50 values were calculated by a variable slope logistic regression using at least five distinct concentrations of test compounds, pipetted in triplicates.

[2] = High-throughput HPLC-logD; type: physicochemical; conditions: octadecyl-poly(vinyl alcohol) column, methanol / 0.01 M sodium phosphate buffer pH 7.4
Excerpt: For this, logD values were estimated in an HPLC-based high-throughput assay employing an octadecyl-poly(vinyl alcohol) stationary phase. The absence of silanol groups renders this type of column especially suited in case of analytes with hydrogen bond donor capabilities as it avoids overestimating their lipophilicity.
Briefly, a mixture of toluene (≥98%, Sigma-Aldrich, St. Louis, MO, USA) and triphenylene (≥99.9%, Carl Roth, Karlsruhe, Germany) was used as internal standard. Samples were dissolved in the internal standard mixture. Using gradient elution, the injection volume was set to 7 µL, the flow rate was 1.5 mL/min, and the mobile phase consisted of a mixture of methanol and 0.01 M sodium phosphate buffer pH 7.4. The HPLC-logD values were derived from the measured retention times following the previously published equation [21, 40].

hM1 [3] = target: T2, hM1 (Homo sapiens, UniProt P11229); assay: Competitive [3H]NMS radioligand binding, CHO-K1 membranes expressing hM1; conditions: for Displacement ± SD hM1: displacement of [3H]NMS, single ligand concentration corresponding to a Ki value of 1 µM (Cheng-Prusoff)
T2 sequence (P11229 1-460): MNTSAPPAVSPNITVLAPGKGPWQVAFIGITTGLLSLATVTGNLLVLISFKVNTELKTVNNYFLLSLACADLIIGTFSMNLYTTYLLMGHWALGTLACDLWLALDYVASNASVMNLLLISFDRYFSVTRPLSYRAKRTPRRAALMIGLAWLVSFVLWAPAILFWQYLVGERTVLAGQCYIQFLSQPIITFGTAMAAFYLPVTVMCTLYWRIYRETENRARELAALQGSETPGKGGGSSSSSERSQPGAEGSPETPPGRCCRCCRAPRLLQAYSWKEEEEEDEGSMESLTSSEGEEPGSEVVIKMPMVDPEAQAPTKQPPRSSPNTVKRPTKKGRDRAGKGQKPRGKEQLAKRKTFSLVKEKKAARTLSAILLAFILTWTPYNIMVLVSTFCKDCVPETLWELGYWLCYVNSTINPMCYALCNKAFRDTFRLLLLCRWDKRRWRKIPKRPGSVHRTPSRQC
Excerpt: as §1, §2, §3

hM4 [4] = target: T3, hM4 (Homo sapiens, UniProt P08173); assay: Competitive [3H]NMS radioligand binding, CHO-K1 membranes expressing hM4; conditions: for Displacement ± SD hM4: displacement of [3H]NMS, single ligand concentration corresponding to a Ki value of 1 µM (Cheng-Prusoff)
T3 sequence (P08173 1-479): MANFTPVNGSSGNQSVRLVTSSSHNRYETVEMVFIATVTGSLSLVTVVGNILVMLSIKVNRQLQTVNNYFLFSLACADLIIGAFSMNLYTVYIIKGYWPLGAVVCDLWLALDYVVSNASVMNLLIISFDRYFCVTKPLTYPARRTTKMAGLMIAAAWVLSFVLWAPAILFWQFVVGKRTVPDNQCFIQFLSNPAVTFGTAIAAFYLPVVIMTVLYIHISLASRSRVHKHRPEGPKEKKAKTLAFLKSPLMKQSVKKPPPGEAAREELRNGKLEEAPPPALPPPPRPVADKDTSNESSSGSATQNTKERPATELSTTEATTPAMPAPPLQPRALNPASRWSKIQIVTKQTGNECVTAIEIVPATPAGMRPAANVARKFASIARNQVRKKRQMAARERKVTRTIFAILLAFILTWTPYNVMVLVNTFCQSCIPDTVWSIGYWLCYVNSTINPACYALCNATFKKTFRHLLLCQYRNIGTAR
Excerpt: as §1, §2, §3

hM3 [5] = target: T4, hM3 (Homo sapiens, UniProt P20309); assay: Competitive [3H]NMS radioligand binding, CHO-K1 membranes expressing hM3; conditions: for Displacement ± SD hM3: displacement of [3H]NMS, single ligand concentration corresponding to a Ki value of 1 µM (Cheng-Prusoff)
Excerpt: as §1, §2, §3

hM5 [6] = target: T5, hM5 (Homo sapiens, UniProt P08912); assay: Competitive [3H]NMS radioligand binding, CHO-K1 membranes expressing hM5; conditions: for Displacement ± SD hM5: displacement of [3H]NMS, single ligand concentration corresponding to a Ki value of 1 µM (Cheng-Prusoff)
T5 sequence (P08912 1-532): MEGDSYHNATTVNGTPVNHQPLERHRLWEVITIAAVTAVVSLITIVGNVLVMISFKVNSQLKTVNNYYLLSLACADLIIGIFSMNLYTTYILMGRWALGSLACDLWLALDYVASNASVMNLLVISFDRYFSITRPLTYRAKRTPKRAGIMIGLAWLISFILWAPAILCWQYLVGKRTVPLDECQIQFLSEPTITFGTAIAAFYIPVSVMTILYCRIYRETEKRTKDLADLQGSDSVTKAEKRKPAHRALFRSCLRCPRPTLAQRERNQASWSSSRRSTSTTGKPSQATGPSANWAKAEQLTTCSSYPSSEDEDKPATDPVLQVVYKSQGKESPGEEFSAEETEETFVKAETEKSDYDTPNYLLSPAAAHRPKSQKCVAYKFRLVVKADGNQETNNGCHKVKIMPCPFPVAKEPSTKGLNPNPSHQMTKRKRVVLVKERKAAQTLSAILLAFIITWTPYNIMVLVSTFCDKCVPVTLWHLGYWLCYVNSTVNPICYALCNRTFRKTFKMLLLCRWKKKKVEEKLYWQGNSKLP
Excerpt: as §1, §2, §3

hM4 [7] = target: T3, hM4; parameters: method as in Ozenil et al. [10]; conditions: [3H]NMS; ref Ozenil et al. [10]; read-out: Affinity: Ki ± SD hM4; cited from earlier work
hM2 [8] = target: T1, hM2; parameters: method as in Ozenil et al. [10]; conditions: [3H]NMS; ref Ozenil et al. [10]; read-out: Affinity: Ki ± SD hM2; cited from earlier work
hM1 [9] = target: T2, hM1; parameters: method as in Ozenil et al. [10]; conditions: [3H]NMS; ref Ozenil et al. [10]; read-out: Affinity: Ki ± SD hM1; cited from earlier work
[10] = parameters: method as in Ozenil et al. [10]; conditions: ref Ozenil et al. [10]; cited from earlier work
hM3 [11] = target: T4, hM3; parameters: method as in Ozenil et al. [10]; conditions: [3H]NMS; ref Ozenil et al. [10]; read-out: Affinity: Ki ± SD hM3; cited from earlier work
hM5 [12] = target: T5, hM5; parameters: method as in Ozenil et al. [10]; conditions: [3H]NMS; ref Ozenil et al. [10]; read-out: Affinity: Ki ± SD hM5; cited from earlier work

T4 sequence (P20309 whole entry): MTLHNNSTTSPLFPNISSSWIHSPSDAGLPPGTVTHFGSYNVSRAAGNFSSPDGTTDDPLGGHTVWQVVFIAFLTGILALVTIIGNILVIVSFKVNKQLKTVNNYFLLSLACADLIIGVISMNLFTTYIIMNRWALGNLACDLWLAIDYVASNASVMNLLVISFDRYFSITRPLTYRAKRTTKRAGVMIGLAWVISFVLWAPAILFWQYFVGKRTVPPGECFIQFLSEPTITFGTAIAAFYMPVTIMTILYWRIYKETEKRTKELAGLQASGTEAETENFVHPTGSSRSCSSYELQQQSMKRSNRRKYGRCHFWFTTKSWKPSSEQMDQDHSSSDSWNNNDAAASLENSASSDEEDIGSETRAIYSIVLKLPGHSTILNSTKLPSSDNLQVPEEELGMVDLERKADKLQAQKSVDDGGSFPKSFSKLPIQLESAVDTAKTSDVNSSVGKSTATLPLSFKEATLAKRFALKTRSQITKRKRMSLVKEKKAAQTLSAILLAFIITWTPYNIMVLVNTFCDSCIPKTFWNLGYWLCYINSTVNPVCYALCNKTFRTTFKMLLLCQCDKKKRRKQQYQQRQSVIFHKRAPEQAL

Row | Structure (SMILES) | chromatographic logD [2] | Displacement ± SD hM2 (hM2 [1]) [%] | Displacement ± SD hM1 (hM1 [3]) [%] | Displacement ± SD hM4 (hM4 [4]) [%] | Displacement ± SD hM3 (hM3 [5]) [%] | Displacement ± SD hM5 (hM5 [6]) [%] | also measured
1 | CN1CCC=C(C(=O)OC(c2ccccc2)c2cccc(CO)c2)C1 (centres unmarked) [Compound 10b, (3-(hydroxymethyl)phenyl)(phenyl)methyl 1-methyl-1,2,5,6-tetrahydropyridine-3-carboxylate] | 2.6 ± 0.1 | – | – | – | – | – | Ki (hM2 [1]; [3H]NMS, CHO-hM2 cell membrane preparations, >1000 values from two independent (single-concentration) experiments, read-out: Affinity: Ki ± SD hM2): 198 ± 35 nM; Ki (hM1 [3]; [3H]NMS, CHO-hM1 cell membrane preparations, read-out: Affinity: Ki ± SD hM1): 12.5 ± 0.8 nM; Ki (hM4 [4]; [3H]NMS, CHO-hM4 cell membrane preparations, read-out: Affinity: Ki ± SD hM4): 32.3 ± 3.8 nM; Ki (hM3 [5]; [3H]NMS, CHO-hM3 cell membrane preparations, read-out: Affinity: Ki ± SD hM3): 70.4 ± 1.8 nM; Ki (hM5 [6]; [3H]NMS, CHO-hM5 cell membrane preparations, read-out: Affinity: Ki ± SD hM5): 49.1 ± 8.5 nM
2 | CN1CCC=C(C(=O)OCc2ccccc2CO)C1 [Compound 8a, 2-(hydroxymethyl)benzyl 1-methyl-1,2,5,6-tetrahydropyridine-3-carboxylate] | 0.79 ± 0.01 | 43 ± 2 | 66 ± 5 | 56 ± 9 | 72 ± 4 | 72 ± 3 | –
3 | CN1CCC=C(C(=O)OCc2cccc(CO)c2)C1 [Compound 8b, 3-(hydroxymethyl)benzyl 1-methyl-1,2,5,6-tetrahydropyridine-3-carboxylate] | 0.87 ± 0.01 | 23 ± 4 | 31 ± 3 | 22 ± 1 | 34 ± 4 | 29 ± 6 | –
4 | CN1CCC=C(C(=O)Oc2ccccc2-c2ccccc2O)C1 [Compound 27, 2′-hydroxy-[1,1′-biphenyl]-2-yl 1-methyl-1,2,5,6-tetrahydropyridine-3-carboxylate] | 2.69 ± 0.01 | 34 ± 7 | 37 ± 6 | 46 ± 3 | 51 ± 9 | 65 ± 11 | melting point: 142 to 144 °C
5 | CN1CCC=C(C(=O)OC(CO)c2ccccc2)C1 (centres unmarked) [Compound 22, 2-hydroxy-1-phenylethyl 1-methyl-1,2,5,6-tetrahydropyridine-3-carboxylate] | 0.92 ± 0.08 | 28 ± 5 | 61 ± 2 | 51 ± 5 | 33 ± 8 | 72 ± 5 | –
6 | CN1CCC=C(C(=O)OC(c2ccccc2)c2ccccc2)C1 [DPMA, benzhydryl 1-methyl-1,2,5,6-tetrahydropyridine-3-carboxylate] | – | – | – | – | – | – | Ki (hM4 [7]): 16 ± 4 nM; Ki (hM2 [8]): 110 ± 39 nM; Ki (hM1 [9]): 3.1 ± 0.5 nM; HPLC-logD [10]: 3.32 ± 0.04 ^2; Ki (hM3 [11]): 56 ± 22 nM; x-Fold Selectivity for hM1 vs. hM2 (hM1 [3]; ratio of the Ki values hM2/hM1): 35.5 x-fold; x-Fold Selectivity for hM1 vs. hM3 (hM1 [3]; ratio of the Ki values hM3/hM1): 18.1 x-fold; x-Fold Selectivity for hM1 vs. hM4 (hM1 [3]; ratio of the Ki values hM4/hM1): 5.2 x-fold; x-Fold Selectivity for hM1 vs. hM5 (hM1 [3]; ratio of the Ki values hM5/hM1): 4.5 x-fold; Ki (hM5 [12]): 14 ± 1 nM
